Assay results taken from article PMC7961786, “Magic Peptide: Unique Properties of the LRR11 Peptide in the Activation of Leukotriene Synthesis in Human Neutrophils” (International Journal of Molecular Sciences, 2021).
“Also recorded” adds a separate entry of the source.

Test system: human neutrophils (PMNLs), 5-LOX product synthesis
Assay: 5-LOX metabolite synthesis in human neutrophils stimulated with opsonized S. typhimurium (HPLC)
Assay type: cell-based

Substance | effect of LRR11 on 5-LOX product synthesis in combination with ODN or LPS (1 µM LRR11 added simultaneously with 1 µM ODN or LPS, then opsonized S. typhimurium, Figure 1) | effect of LRR11 on FPS-ZM1 action on leukotriene synthesis (1 µM LRR11 with ODN after 0.15 µM FPS-ZM1, Figure 3) | LTB4 accumulation, dependence on way of LRR11 addition ((1) LRR11 15 min before ODN, (2) simultaneously but independently, (3) 1-h pre-mixed) | effect on 5-LOX activity / leukotriene synthesis (ODN alone, 1 µM, 20 min, then opsonized S. typhimurium 15 min, Figure 1, five independent experiments in duplicate) | Σ 5-LOX metabolites (Table S1, 2×10^7 PMNLs, 15 min at 37 °C without or with 5 µM Chloroquine, then ODN, after 20 min 0.5×10^9 opsonized S. typhimurium for 15 min, mean ± SEM, three independent experiments) [ng/107 PMNLs]
QLRKLNLSFNYQKRVSFAHLSLAPSFGSLV [LRR11, 30 amino acid peptide from leucine-rich repeat of TLR9] | does not significantly change the effects of G-rich ODN and lipopolysaccharides (LPS), but obviously enhances the effects of CpG-ODNs; also recorded: stimulated the formation of the 5-LOX products; also recorded: synergistically amplifying each other’s effects | its action is nullified in the presence of LRR11 peptide; also recorded: LRR11 abolished the effects of FPS-ZM1 and restored the level of leukotriene synthesis | only pathways (2) and (3) provide a significant effect on LTB4 accumulation |  | 
5′-tcgtcgttttcggcgcgcgccg-3′ (DNA TCGTCGTTTTCGGCGCGCGCCG; chemistry not fully specified) [C-CpG] |  |  |  | increased leukotriene synthesis | 42.1 ± 4.2
